Read-outs that look alike come from different tables or passages of the source.

The term Ki denotes a measure of affinity in units of concentration, obtained from inhibition or displacement. High values mean a looser hold on the target, low ones a stronger hold on the target. As usually defined, the melting point is the temperature, or range, at which the solid turns liquid. As a reminder, the pKi is −log10 of the Ki, conventionally taken in molar units. Higher therefore signals a low Ki.

The target in data set [1] is T1, Leukotriene D4 (LTD4) receptor (Cavia porcellus, UniProt Q2NNR5).
T1 sequence (Q2NNR5 1-340): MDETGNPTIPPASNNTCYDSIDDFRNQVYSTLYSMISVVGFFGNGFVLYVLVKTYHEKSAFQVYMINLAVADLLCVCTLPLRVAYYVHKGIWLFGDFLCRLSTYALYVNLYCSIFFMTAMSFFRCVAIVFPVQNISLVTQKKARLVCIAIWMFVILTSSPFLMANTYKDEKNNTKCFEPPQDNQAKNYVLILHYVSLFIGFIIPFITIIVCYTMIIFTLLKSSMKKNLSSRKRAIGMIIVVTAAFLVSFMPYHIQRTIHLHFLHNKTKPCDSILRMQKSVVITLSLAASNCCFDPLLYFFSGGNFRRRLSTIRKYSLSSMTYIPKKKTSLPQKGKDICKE
The experiment in a line: Leukotriene D4 receptor binding test ([3H]LTD4, lung cell membrane fraction). The following applies: binding inhibition constant vs 0.2 nM [3H]LTD4, guinea pig lung cell membrane fraction, 25° C. 30 minutes.
Procedure: Leukotriene D4 Receptor Binding Test
<Preparation of Receptor Sample>
As a receptor sample, a lung cell membrane fraction from guinea pigs was used. […] Lungs of Hartley male guinea pigs (400 to 500 g body weight, Japan SLC Inc.) were isolated, and perfused with a physiological saline, and then, adding 10 mM of PIPES, 10 mM of MgCl2 and 10 mM of CaCl2 buffer (pH 7.5) to the lung tissue and the mixture was homogenized. This homogenate was centrifuged at 70,000×g for 10 minutes to obtain a membrane fraction.
<Leukotriene D4 Receptor Binding Test>
To 0.42 mg of the receptor sample were added 10 mM of PIPES, 10 mM of MgCl2 and 10 mM of CaCl2 buffer (pH 7.5) to make the total amount of 480 μl, and 10 μl of [^3H] LTD4 (NEN Life Science Products Inc.) and 10 μl of a test compound in dimethylsulfoxide were added to the mixture, and the resulting mixture was incubated at 25° C. for 30 minutes. The mixtures thus incubated were filtered through a glass fiber filter (Whatman International Ltd., GF/C) using cell harvester (Biomedical Research & Development Laboratories, Inc., M-30R). The filter paper was washed with 10 mM of Tris and 100 mM of NaCl buffer (pH 7.5), and 5 ml of a liquid scintillator (nacalai tesque inc., clearsol I) was added thereto, and radioactivity was measured by a liquid scintillation analyzer (Packard Instrument Co., 2000CA). When a dissociation constant (Kd) of LTD4 was to be obtained, [^3H] LTD4 with 0.03 to 0.5 nM was used, and 1 μM of non-radioactive LTD4 was added. When a binding inhibition constant (Ki) of the Test compound is to be measured, [^3H] LTD4 with 0.2 nM was used.

Data set [2] concerns Leukotriene D4 (LTD4) induced respiratory constriction. In words: Leukotriene D4 induced respiratory constriction test. The data set is classed as in vivo, guinea pig. The settings on record: Cavia porcellus, po, read-out: LTD4 inhibitory activity. The procedure:
Leukotriene D4 Induced Respiratory Constriction Test
Respiratory constriction was measured by modifying the method of Konzett and Rossler (Arch. Exp. Pathol. Pharmakol., 195, pp. 71-74 (1940)). Hartley male guinea pigs (400 to 500 g body weight, Japan SLC Inc.) were anesthetized with pentobarbital (50 mg/kg, s.c.), and a cannula was inserted into the trachea to carry out artificial ventilation with an artificial ventilator (manufactured by Harvard Apparatus, Model 683). An inner pressure of the respiratory tract was measured by a differential pressure transducer (Nihon Kohden, TP-603T) connected to the respiratory cannula and it is used as an index of respiratory constriction.
LTD4 (0.03, 0.06, 0.13, 0.25, 0.5, 1 and 2 μg/kg, Simga-Aldrich) was intravenously administered from a cannula inserted into the right jugular vein from a low dose with an interval of 5 minutes to cause a respiratory constricttion reaction and an increased amount of a respiratory inner pressure was measured. Test compound was suspended in 0.5% sodium carboxymethyl cellulose aqueous solution or dissolved in 30% propylene glycol aqueous solution, and orally administered 24 hours before administration of LTD4. Animals were fasted for 24 hours before administration of the Test compound. […] LTD4 inhibitory activity=(Dose of Compound administered)/{(ED50 of group to which Compound was added)/(ED50 of control group)-1}

[3] abbreviates: p.o. 24 h before LTD4 i.v., dose of compound shifting the control LTD4 dose-reaction curve two-times to higher dose, anesthetized guinea pigs.

In turn, `O=C(O)CCOC1c2ccccc2C=Cc2ccc(/C=C/c3ccc4cc(F)c(Cl)cc4n3)cc21` (stereo not shown) [Example Compound 12, Sodium 3-{[3-[(E)-2-(7-chloro-6-fluoroquinolin-2-yl)ethenyl]-5H-dibenzo[a,d]cyclohepten-5-yl]oxy}propionate] gave a Ki in data set [1] of 0.2 nM.

Turning to `O=C([O-])CCSC1c2ccccc2C=Cc2ccc(/C=C/c3ccc4cc(F)c(Cl)cc4n3)cc21.[Na+]` (stereo not shown) [Example Compound 7, Sodium 3-{[3-[(E)-2-(7-chloro-6-fluoroquinolin-2-yl)ethenyl]-5H-dibenzo[a,d]cyclohepten-5-yl]thio}propionate], the melting point lay in the range of 228 to 238 °C. In data set [1], this compound gave a Ki of 0.2 nM. For the same compound, the ED (2-fold shift of LTD4 dose-response) in data set [2] (24 h) is 0.85 µg/kg.

On to `O=C([O-])CCSC1c2cc(/C=C/c3ccc4cc(F)c(Cl)cc4n3)ccc2C=Cc2c(F)cccc21.[Na+]` (stereo not shown) [Example Compound 18, Sodium 3-{[3-[(E)-2-(7-chloro-6-fluoroquinolin-2-yl)ethenyl]-9-fluoro-5H-dibenzo[a,d]cyclohepten-5-yl]thio}-propionate], for which the ED (2-fold shift of LTD4 dose-response) in data set [2] (24 h) amounted to 1.12 µg/kg.

Consider `C[C@H](CSC1c2ccccc2C=Cc2ccc(/C=C/c3ccc4cc(F)c(F)cc4n3)cc21)C(=O)[O-].[Na+]` (stereo partly shown), for which the melting point lay within 240 to 249 °C.

Compound `O=C(O)COC1c2cc(/C=C/c3ccc4cc(F)c(Cl)cc4n3)ccc2C=Cc2c(F)cccc21` (stereo not shown) [Example Compound 17, Sodium [3-[(E)-2-(7-chloro-6-fluoroquinolin-2-yl)ethenyl]-9-fluoro-5H-dibenzo[a,d]cyclohepten-5-yl]oxy-acetate] had a Ki in data set [1] of 0.158 nM.

As to `O=C([O-])COC1c2cc(/C=C/c3ccc4cc(F)c(Cl)cc4n3)ccc2C=Cc2c(Cl)cccc21.[Na+]` (stereo not shown) [Example Compound 19, Sodium [3-[(E)-2-(7-chloro-6-fluoroquinolin-2-yl)ethenyl]-9-chloro-5H-dibenzo[a,d]cyclohepten-5-yl]oxy-acetate], in data set [2] (setting [3]), the ED (2-fold shift of LTD4 dose-response) turned out to be 2.43 µg/kg.

The compound `O=C(O)COC1c2ccccc2C=Cc2ccc(/C=C/c3ccc4ccc(Cl)cc4n3)cc21` (stereo not shown) [Example Compound 29, Sodium [3-[(E)-2-(7-chloroquinolin-2-yl)ethenyl]-5H-dibenzo[a,d]cyclohepten-5-yl]oxyacetate] showed a Ki in data set [1] of 0.251 nM.

With `O=C(O)CCSC1c2cc(/C=C/c3ccc4c(n3)CCCC4)ccc2C=Cc2c1cccc2C(F)(F)F` (stereo not shown) [Example Compound 31, Sodium 3-{[3-[(E)-2-(5,6,7,8-tetrahydroquinolin-2-yl)ethenyl]-9-trifluoromethyl-5H-dibenzo[a,d]cyclohepten-5-yl]thio}propionate], in data set [1], the Ki was 0.2 nM.

Compound `O=C([O-])CCSC1c2ccccc2C=Cc2ccc(/C=C/c3ccc4ccc(Cl)cc4n3)cc21.[Na+]` (stereo not shown) [Example Compound 8, Sodium 3-{[3-[(E)-2-(7-chloroquinolin-2-yl)ethenyl]-5H-dibenzo[a,d]cyclohepten-5-yl]thio}propionate] came in with a melting point of 193 to 203 °C. Also, in data set [2] (24 h), the ED (2-fold shift of LTD4 dose-response) worked out at 5.3 µg/kg.

Turning to `O=C([O-])CCSC1c2ccccc2C=Cc2ccc(/C=C/c3ccc4cc(F)c(F)cc4n3)cc21.[Na+]` (stereo not shown) [Example Compound 4, Sodium 3-{[3-[(E)-2-(6,7-difluoroquinolin-2-yl)ethenyl]-5H-dibenzo[a,d]cyclohepten-5-yl]thio}propionate], the melting point lay within 213 to 216 °C. In data set [1], this compound had a Ki of 0.2 nM. In addition, the ED (2-fold shift of LTD4 dose-response) in data set [2] (24 h) was 1.91 µg/kg.

As to `C[C@H](COC1c2ccccc2C=Cc2ccc(/C=C/c3ccc4cc(F)c(Cl)cc4n3)cc21)C(=O)O` (stereo partly drawn) [Example Compound 13, Sodium 3-{[3-[(E)-2-(7-chloro-6-fluoroquinolin-2-yl)ethenyl]-5H-dibenzo[a,d]cyclohepten-5-yl]oxy}-2-(R)-methylpropionate], the Ki in data set [1] was 0.126 nM.

For `O=C([O-])CC1CC1CSC1c2ccccc2C=Cc2ccc(/C=C/c3ccc4cc(F)c(Cl)cc4n3)cc21.[Na+]` (stereo not shown) [Example Compound 16, Sodium 3-{[3-[(E)-2-(7-chloro-6-fluoroquinolin-2-yl)ethenyl]-5H-dibenzo[a,d]cyclohepten-5-yl]thiomethyl}-cyclopropaneacetate], the ED (2-fold shift of LTD4 dose-response) in data set [2] (24 h) was 0.79 µg/kg.

Turning to “Sodium [3-[(E)-2-(7-chloroquinolin-2-yl)ethenyl]-5H-dibenzo[a,d]cyclohepten-5-yl]thioacetate [Example Compound 30]”, the pKi in data set [1] worked out at 9.7.

In data set [1], `C[C@H](COC1c2ccccc2C=Cc2ccc(/C=C/c3ccc4cc(F)c(F)cc4n3)cc21)C(=O)[O-].[Na+]` (stereo partly drawn) [Example Compound 10, Sodium 3-{[3-[(E)-2-(6,7-difluoroquinolin-2-yl)ethenyl]-5H-dibenzo[a,d]cyclohepten-5-yl]oxy}-2-(R)-methyl-propionate] gave a Ki of 0.1 nM. Further, the ED (2-fold shift of LTD4 dose-response) in data set [2] (setting [3]) was determined as 9.93 µg/kg.

Consider `O=C(O)CCSC1c2ccccc2C=Cc2ccc(/C=C/c3ccc4c(n3)CCCC4)cc21` (stereo not shown) [Example Compound 9, Sodium 3-{[3-[(E)-2-(5,6,7,8-tetrahydroquinolin-2-yl)ethenyl]-5H-dibenzo[a,d]cyclohepten-5-yl]thio}propionate], for which affinity in data set [1] was put at a Ki of 0.158 nM.

As to `O=C([O-])CCSC1c2cc(/C=C/c3ccc4cc(F)c(Cl)cc4n3)ccc2C=Cc2c1cccc2C(F)(F)F.[Na+]` (stereo not shown) [Example Compound 28, Sodium 3-{[3-[(E)-2-(7-chloro-6-fluoroquinolin-2-yl)ethenyl]-9-trifluoromethyl-5H-dibenzo[a,d]cyclohepten-5-yl]thio}propionate], the ED (2-fold shift of LTD4 dose-response) in data set [2] (24 h) was 1.7 µg/kg.

In the case of `O=C(O)CCSC1c2ccccc2COc2ccc(OCc3ccc4cc(F)c(Cl)cc4n3)cc21` (stereo not shown) [Compound A, 3-[2-(7-chloro-6-fluoroquinolin-2-yl)methoxy-6,11-dihydrobenz[b,e]oxepin-11-yl]thiopropionic acid, reference compound], the ED (2-fold shift of LTD4 dose-response) in data set [2] (setting [3]) was found to be 25.5 µg/kg.

In turn, `O=C([O-])COC1c2ccccc2C=Cc2ccc(/C=C/c3ccc4cc(F)c(F)cc4n3)cc21.[Na+]` (stereo not shown) [Example Compound 3, Sodium [3-[(E)-2-(6,7-difluoroquinolin-2-yl)ethenyl]-5H-dibenzo[a,d]cyclohepten-5-yl]oxyacetate] returned a melting point of 213 to 227 °C. This compound gave a Ki in data set [1] of 0.1 nM. For the same compound, the ED (2-fold shift of LTD4 dose-response) in data set [2] (setting [3]) came to 4.71 µg/kg.

Regarding `O=C(O)COC1c2ccccc2C=Cc2ccc(/C=C/c3ccc4cc(F)c(Cl)cc4n3)cc21` (stereo not shown) [Example Compound 11, Sodium [3-[(E)-2-(7-chloro-6-fluoroquinolin-2-yl)ethenyl]-5H-dibenzo[a,d]cyclohepten-5-yl]oxyacetate], the Ki in data set [1] is 0.126 nM.

As for `O=C([O-])CCSC1c2cc(/C=C/c3ccc4cc(F)c(Cl)cc4n3)ccc2C=Cc2c(Cl)cccc21.[Na+]` (stereo not shown) [Example Compound 20, Sodium 3-{[3-[(E)-2-(7-chloro-6-fluoroquinolin-2-yl)ethenyl]-9-chloro-5H-dibenzo[a,d]cyclohepten-5-yl]thio}-propionate], the ED (2-fold shift of LTD4 dose-response) in data set [2] (24 h) was 0.7 µg/kg.

The values above are taken from US7309718B2, “Dibenzocycloheptene compound” (UBE Industries, Ltd., priority 2001, dated 2007).
